# Assay results taken from US20230143612A1 (Arbutus Biopharma Corporation, priority 2020, published 2023).
# Molecular target: PD-L1 His protein / PD-1 Fc protein (Homo sapiens, UniProt Q9NZQ7)
# Experiment: HTRF Assay (PD-1/PD-L1 interaction)
# Assay type: binding
# Settings: PD-L1 His 6 nM, PD-1 Fc 6 nM
# Summary of the method: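 Compounds tested from 20 μM down to 0.001 μM (3-fold) against 6 nM PD-L1 His and 6 nM PD-1 Fc, 15 min room temperature incubation. Detection after 1 h at room temperature with Tb cryptate anti-6HIS and XL665 anti-human IgG reagents (mixture at 0.35 nM and 6.7 nM), HTRF signal.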
# Sequence of PD-L1 His protein / PD-1 Fc protein (Q9NZQ7 19-238 limits assumed): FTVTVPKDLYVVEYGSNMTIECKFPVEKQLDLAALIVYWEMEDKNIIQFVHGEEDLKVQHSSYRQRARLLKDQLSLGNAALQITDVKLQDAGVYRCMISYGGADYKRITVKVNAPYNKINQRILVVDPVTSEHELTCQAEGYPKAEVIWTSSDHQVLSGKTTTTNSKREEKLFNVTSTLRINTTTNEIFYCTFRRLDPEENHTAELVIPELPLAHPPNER
row,Compound,IC50
1,"COc1nc(-c2cccc(-c3cccc(-c4ccn5c(=O)c(CNCCCO)cnc5c4)c3Cl)c2Cl)ccc1CNC[C@@H]1CCC(=O)N1 [Example 316, (S)-8-(2,2′-Dichloro-3′-(6-methoxy-5-((((5-oxopyrrolidin-2-yl)methyl)-amino)methyl)-pyridin-2-yl)-[1,1′-biphenyl]-3-yl)-3-(((3-hydroxypropyl)amino)methyl)-4H-pyrido[1,2-a]pyrimidin-4-one]",0.3 nM
2,"COc1nc(-c2cccc(-c3cccc(-c4ccn5c(=O)c(CN(C)CCCO)cnc5c4)c3Cl)c2Cl)ccc1CNC[C@@H]1CCC(=O)N1 [Example 317, (S)-8-(2,2′-Dichloro-3′-(6-methoxy-5-((((5-oxopyrrolidin-2-yl)methyl)amino)methyl)pyridin-2-yl)-[1,1′-biphenyl]-3-yl)-3-(((3-hydroxypropyl)(methyl)amino)methyl)-4H-pyrido[1,2-a]pyrimidin-4-one]",0.2 nM
3,"COc1nc(-c2cccc(-c3cccc(-c4ccn5c(=O)c(CN(C)[C@H]6C[C@](C)(O)C6)cnc5c4)c3Cl)c2Cl)ccc1CNC[C@@H]1CCC(=O)N1 [Example 318, 8-(2,2′-Dichloro-3′-(6-methoxy-5-(((((S)-5-oxopyrrolidin-2-yl)methyl)-amino)-methyl)-pyridin-2-yl)-[1,1′-biphenyl]-3-yl)-3-((((1r,3r)-3-hydroxy-3-methylcyclobutyl)(methyl)amino)methyl)-4H-pyrido[1,2-a]pyrimidin-4-one]",0.1 nM
4,"COc1nc(-c2cccc(-c3cccc(-c4ccn5c(=O)c(CN(C)C[C@H](C)O)cnc5c4)c3Cl)c2Cl)ccc1CNC[C@@H]1CCC(=O)N1 [Example 319, 8-[2-Chloro-3-[2-chloro-3-[6-methoxy-5-[[[(2S)-5-oxopyrrolidin-2-yl]methylamino]methyl]-2-pyridyl]phenyl]phenyl]-3-[[[(2S)-2-hydroxypropyl]-methyl-amino]methyl]pyrido[1,2-a]pyrimidin-4-one]",0.1 nM
5,"COc1nc(-c2cccc(-c3cccc(-c4ccn5c(=O)c(CNCCN6CCCC6=O)cnc5c4)c3Cl)c2Cl)ccc1CNCCN1CCCC1=O [Example 321, 8-[2-Chloro-3-[2-chloro-3-[6-methoxy-5-[[2-(2-oxopyrrolidin-1-yl)ethylamino]methyl]-2-pyridyl]phenyl]phenyl]-3-[[2-(2-oxopyrrolidin-1-yl)ethylamino]methyl]pyrido[1,2-a]pyrimidin-4-one]",0.2 nM
6,"COc1nc(-c2cccc(-c3cccc(-c4ccn5c(=O)c(CNC6CCN(C(C)=O)CC6)cnc5c4)c3Cl)c2Cl)ccc1CNC1CCN(C(C)=O)CC1 [Example 322, 3-[[(1-Acetyl-4-piperidyl)amino]methyl]-8-[3-[3-[5-[[(1-acetyl-4-piperidyl)amino]methyl]-6-methoxy-2-pyridyl]-2-chloro-phenyl]-2-chloro-phenyl]pyrido[1,2-a]pyrimidin-4-one]",0.1 nM
7,"COc1nc(-c2cccc(-c3cccc(-c4cc(C)n5c(=O)c(C6=NCC(O)CN6)cnc5c4)c3Cl)c2Cl)ccc1CNC[C@@H]1CCC(=O)N1 (stereo partly drawn) [Example 323, 8-(2,2′-Dichloro-3′-(6-methoxy-5-(((((S)-5-oxopyrrolidin-2-yl)methyl)amino)methyl)pyridin-2-yl)-[1,1′-biphenyl]-3-yl)-3-(5-hydroxy-1,4,5,6-tetrahydropyrimidin-2-yl)-6-methyl-4H-pyrido[1,2-a]pyrimidin-4-one]",5.9 nM
8,"COc1nc(-c2cccc(-c3cccc(-c4ccc5nc(CNC[C@H](C)O)cc(=O)n5c4)c3Cl)c2Cl)ccc1CNC[C@@H]1CCC(=O)N1 [Example 324, 7-(2,2′-Dichloro-3′-(6-methoxy-5-(((((S)-5-oxopyrrolidin-2-yl)methyl)amino)methyl)pyridin-2-yl)-[1,1′-biphenyl]-3-yl)-2-((((S)-2-hydroxypropyl)amino)methyl)-4H-pyrido[1,2-a]pyrimidin-4-one]",5.7 nM
9,"COc1nc(-c2cccc(-c3cccc(-c4ccc5nc(CN[C@H]6C[C@](C)(O)C6)cc(=O)n5c4)c3Cl)c2Cl)ccc1CNC[C@@H]1CCC(=O)N1 [Example 325, 7-(2,2′-dichloro-3′-(6-methoxy-5-(((((S)-5-oxopyrrolidin-2-yl)methyl)amino)methyl)pyridin-2-yl)-[1,1′-biphenyl]-3-yl)-2-((((1r,3r)-3-hydroxy-3-methylcyclobutyl)amino)methyl)-4H-pyrido[1,2-a]pyrimidin-4-one]",0.1 nM
10,"COc1nc(-c2cccc(-c3cccc(-c4ccn5c(=O)c(CN6CCNC(=O)CC6)cnc5c4)c3Cl)c2Cl)ccc1CNC[C@@H]1CCC(=O)N1 [Example 327, (S)-8-(2,2′-Dichloro-3′-(6-methoxy-5-((((5-oxopyrrolidin-2-yl)methyl)-amino)methyl)-pyridin-2-yl)-[1,1′-biphenyl]-3-yl)-3-((5-oxo-1,4-diazepan-1-yl)methyl)-4H-pyrido[1,2-a]pyrimidin-4-one]",0.1 nM
11,"COc1nc(-c2cccc(-c3cccc(-c4ccn5c(=O)c(CN6CCC(CO)(CO)C6)cnc5c4)c3Cl)c2Cl)ccc1CNC[C@@H]1CCC(=O)N1 [Example 328, (S)-3-((3,3-Bis(hydroxymethyl)pyrrolidin-1-yl)methyl)-8-(2,2′-dichloro-3′-(6-methoxy-5-((((5-oxopyrrolidin-2-yl)methyl)amino)methyl)pyridin-2-yl)-[1,1′-biphenyl]-3-yl)-4H-pyrido[1,2-a]pyrimidin-4-one]",0.1 nM
12,"COc1nc(-c2cccc(-c3cccc(-c4ccn5c(=O)c(CN6CC7(C6)CN(C(C)=O)C7)cnc5c4)c3Cl)c2Cl)ccc1CNC[C@@H]1CCC(=O)N1 [Example 329, (S)-3-((6-Acetyl-2,6-diazaspiro[3.3]heptan-2-yl)methyl)-8-(2,2′-dichloro-3′-(6-methoxy-5-((((5-oxopyrrolidin-2-yl)methyl)amino)methyl)pyridin-2-yl)-[1,1′-biphenyl]-3-yl)-4H-pyrido[1,2-a]pyrimidin-4-one]",0.1 nM
13,"COc1nc(-c2cccc(-c3cccc(-c4ccc(CN(C=O)C[C@@H]5CCC(=O)N5)c(OC)n4)c3Cl)c2Cl)ccc1CNC[C@@H]1CCC(=O)N1 [Example 330, N-((6-(2,2′-Dichloro-3′-(6-methoxy-5-(((((S)-5-oxopyrrolidin-2-yl)methyl)amino)methyl)pyridin-2-yl)-[1,1′-biphenyl]-3-yl)-2-methoxypyridin-3-yl)methyl)-N—(((S)-5-oxopyrrolidin-2-yl)methyl)formamide]",0.8 nM
14,"COc1nc(-c2cccc(-c3cccc(-c4cc5c(=O)n(C)c(CNC[C@@H]6CCC(=O)N6)nn5c4)c3Cl)c2Cl)ccc1CNC[C@@H]1CCC(=O)N1 [Example 331, 6-(2,2′-Dichloro-3′-(6-methoxy-5-(((((S)-5-oxopyrrolidin-2-yl)methyl)amino)methyl)pyridin-2-yl)-[1,1′-biphenyl]-3-yl)-3-methyl-2-(((((S)-5-oxopyrrolidin-2-yl)methyl)amino)methyl)pyrrolo[2,1-f][1,2,4]triazin-4(3H)-one]",310 nM
15,"COc1nc(-c2cccc(-c3cccc(-c4cc5c(=O)n(C)c(CN[C@H]6C[C@](C)(O)C6)nn5c4)c3Cl)c2Cl)ccc1CNC[C@@H]1CCC(=O)N1 [Example 332, 6-(2,2′-Dichloro-3′-(6-methoxy-5-(((((S)-5-oxopyrrolidin-2-yl)methyl)amino)methyl)pyridin-2-yl)-[1,1′-biphenyl]-3-yl)-2-((((1r,3r)-3-hydroxy-3-methylcyclobutyl)amino)methyl)-3-methylpyrrolo[2,1-f][1,2,4]triazin-4(3H)-one]",500 nM
16,"COc1nc(-c2cccc(-c3cccc(-c4cc5ncc(CNC[C@H](C)O)cc5cn4)c3Cl)c2Cl)ccc1CNC[C@@H]1CCC(=O)N1 [Example 333, (S)-5-((((6-(2,2′-Dichloro-3′-(3-((((S)-2-hydroxypropyl)amino)methyl)-1,6-naphthyridin-7-yl)-[1,1′-biphenyl]-3-yl)-2-methoxypyridin-3-yl)methyl)amino)methyl)pyrrolidin-2-one]",0.7 nM
17,"COc1nc(-c2cccc(-c3cccc(-c4cc5ncc(CNCCO)cc5cn4)c3Cl)c2Cl)ccc1CNC[C@@H]1CCC(=O)N1 [Example 334, (S)-5-((((6-(2,2′-Dichloro-3′-(3-(((2-hydroxyethyl)amino)methyl)-1,6-naphthyridin-7-yl)-[1,1′-biphenyl]-3-yl)-2-methoxypyridin-3-yl)methyl)amino)methyl)pyrrolidin-2-one]",0.1 nM
18,"COc1nc(-c2cccc(-c3cccc(-c4ccn5c(=O)c(CNC[C@@H]6CCC(=O)N6)cnc5c4)c3Cl)c2Cl)cc(Cl)c1CNC[C@@H]1CCC(=O)N1 [Example 335, 8-[2-Chloro-3-[2-chloro-3-[4-chloro-6-methoxy-5-[[[(2S)-5-oxopyrrolidin-2-yl]methylamino]methyl]-2-pyridyl]phenyl]phenyl]-3-[[[(2S)-5-oxopyrrolidin-2-yl]methylamino]methyl]pyrido[1,2-a]pyrimidin-4-one]",2.1 nM
19,"COc1nc(-c2cccc(-c3cccc(-c4ccn5c(=O)c(CNC[C@@H](O)CC(=O)N(C)C)cnc5c4)c3Cl)c2Cl)cc(F)c1CNC[C@@H]1CCC(=O)N1 [Example 336, (3S)-4-[[8-[2-Chloro-3-[2-chloro-3-[4-fluoro-6-methoxy-5-[[[(2S)-5-oxopyrrolidin-2-yl]methylamino]methyl]-2-pyridyl]phenyl]phenyl]-4-oxo-pyrido[1,2-a]pyrimidin-3-yl]methylamino]-3-hydroxy-N,N-dimethyl-butanamide]",0.1 nM
20,"COc1cc(Cl)c(CNC[C@H]2CCC(=O)N2)c(-c2cccc(-c3cccc(-c4ccn5c(=O)c(CNC[C@@H]6CCC(=O)N6)cnc5c4)c3Cl)c2Cl)n1 [Example 337, 8-[2-chloro-3-[2-chloro-3-[4-chloro-6-methoxy-3-[[[(2R)-5-oxopyrrolidin-2-yl]methylamino]methyl]-2-pyridyl]phenyl]phenyl]-3-[[[(2S)-5-oxopyrrolidin-2-yl]methylamino]methyl]pyrido[1,2-a]pyrimidin-4-one]",47 nM
